Test results published in ChEMBL document CHEMBL4346757, “Synthesis and biological evaluation of 7-methoxy-1-(3,4,5-trimethoxyphenyl)-4,5-dihydro-2H-benzo[e]indazoles as new colchicine site inhibitors” (Bioorg Med Chem Lett, 2019).

Tests used:
Assay type in all cases: functional
NCI-H23 = test: Growth inhibition of human NCI-H23 cells assessed as cell growth at 0.01 uM after 48 hrs by SRB assay relative to control; conditions: NCI-H23, 48 h, read-out: Activity
HCT-116 = test: Growth inhibition of human HCT116 cells assessed as cell growth at 0.01 uM after 48 hrs by SRB assay relative to control; conditions: HCT-116, 48 h, read-out: Activity
SF-539 [1] = test: Growth inhibition of human SF539 cells assessed as cell growth at 0.01 uM after 48 hrs by SRB assay relative to control; conditions: SF-539, 48 h, read-out: Activity
OVCAR-3 [2] = test: Growth inhibition of human OVCAR3 cells assessed as cell growth at 0.01 uM after 48 hrs by SRB assay relative to control; conditions: OVCAR-3, 48 h, read-out: Activity
A498 = test: Growth inhibition of human A498 cells assessed as cell growth at 0.01 uM after 48 hrs by SRB assay relative to control; conditions: A498, 48 h, read-out: Activity
A549 [3] = test: Growth inhibition of human A549/ATCC cells assessed as cell growth at 0.1 uM after 48 hrs by SRB assay relative to control; conditions: A549, 48 h, read-out: Activity
EKVX [4] = test: Growth inhibition of human EKVX cells assessed as cell growth at 0.1 uM after 48 hrs by SRB assay relative to control; conditions: read-out: Activity
SF-539 [5] = test: Growth inhibition of human SF539 cells assessed as cell growth at 0.1 uM after 48 hrs by SRB assay relative to control; conditions: SF-539, 48 h, read-out: Activity
SK-OV-3 = test: Growth inhibition of human SKOV3 cells assessed as cell growth at 0.1 uM after 48 hrs by SRB assay relative to control; conditions: SK-OV-3, 48 h, read-out: Activity
CCRF-CEM [6] = test: Growth inhibition of human CCRF-CEM cells assessed as cell growth at 1 uM after 48 hrs by SRB assay relative to control; conditions: read-out: Activity
SR = test: Growth inhibition of human SR cells assessed as cell growth at 1 uM after 48 hrs by SRB assay relative to control; conditions: read-out: Activity
HOP-62 = test: Growth inhibition of human HOP62 cells assessed as cell growth at 1 uM after 48 hrs by SRB assay relative to control; conditions: HOP-62, 48 h, read-out: Activity
SNB-19 = test: Growth inhibition of human SNB19 cells assessed as cell growth at 1 uM after 48 hrs by SRB assay relative to control; conditions: SNB-19, 48 h, read-out: Activity
SNB-75 = test: Growth inhibition of human SNB75 cells assessed as cell growth at 1 uM after 48 hrs by SRB assay relative to control; conditions: SNB-75, 48 h, read-out: Activity
Malme-3M = test: Growth inhibition of human MALME-3M cells assessed as cell growth at 1 uM after 48 hrs by SRB assay relative to control; conditions: read-out: Activity
UACC-257 = test: Growth inhibition of human UACC257 cells assessed as cell growth at 1 uM after 48 hrs by SRB assay relative to control; conditions: UACC-257, 48 h, read-out: Activity
IGROV-1 [7] = test: Growth inhibition of human IGROV1 cells assessed as cell growth at 1 uM after 48 hrs by SRB assay relative to control; conditions: IGROV-1, 48 h, read-out: Activity
NCI-H460 = test: Growth inhibition of human NCI-H460 cells assessed as cell growth at 10 uM after 48 hrs by SRB assay relative to control; conditions: NCI-H460, 48 h, read-out: Activity
SF-539 [8] = test: Growth inhibition of human SF539 cells assessed as cell growth at 10 uM after 48 hrs by SRB assay relative to control; conditions: SF-539, 48 h, read-out: Activity
OVCAR-4 = test: Growth inhibition of human OVCAR4 cells assessed as cell growth at 10 uM after 48 hrs by SRB assay relative to control; conditions: OVCAR-4, 48 h, read-out: Activity
OVCAR-8 = test: Growth inhibition of human OVCAR8 cells assessed as cell growth at 10 uM after 48 hrs by SRB assay relative to control; conditions: OVCAR-8, 48 h, read-out: Activity
786-0 = test: Growth inhibition of human 786-0 cells assessed as cell growth at 10 uM after 48 hrs by SRB assay relative to control; conditions: 786-0, 48 h, read-out: Activity
SN12C = test: Growth inhibition of human SN12C cells assessed as cell growth at 10 uM after 48 hrs by SRB assay relative to control; conditions: read-out: Activity
CCRF-CEM [9] = test: Growth inhibition of human CCRF-CEM cells assessed as cell growth at 100 uM after 48 hrs by SRB assay relative to control; conditions: read-out: Activity
COLO 205 = test: Growth inhibition of human COLO205 cells assessed as cell growth at 100 uM after 48 hrs by SRB assay relative to control; conditions: COLO 205, 48 h, read-out: Activity
KM12 = test: Growth inhibition of human KM12 cells assessed as cell growth at 100 uM after 48 hrs by SRB assay relative to control; conditions: KM12, 48 h, read-out: Activity
OVCAR-3 [10] = test: Growth inhibition of human OVCAR3 cells assessed as cell growth at 100 uM after 48 hrs by SRB assay relative to control; conditions: OVCAR-3, 48 h, read-out: Activity
A549 [11] = test: Cytotoxicity against human A549/ATCC cells assessed as growth inhibition after 48 hrs by SRB assay; conditions: A549, 48 h
EKVX [12] = test: Cytotoxicity against human EKVX cells assessed as growth inhibition after 48 hrs by SRB assay
SF-268 = test: Cytotoxicity against human SF268 cells assessed as growth inhibition after 48 hrs by SRB assay; conditions: SF-268, 48 h
IGROV-1 [13] = test: Cytotoxicity against human IGROV1 cells assessed as growth inhibition after 48 hrs by SRB assay; conditions: IGROV-1, 48 h
OVCAR-3 [14] = test: Cytotoxicity against human OVCAR3 cells assessed as growth inhibition after 48 hrs by SRB assay; conditions: OVCAR-3, 48 h
[15] = read-out: LC50 (the source's name)
[16] = read-out: pLC50 (the source's name) (converted)

In the case of `COc1ccc2c(c1)CCc1n[nH]c(-c3cc(OC)c(OC)c(OC)c3)c1-2`, the growth at 0.01 µM (NCI-H23) is reported as 14%, the growth at 0.01 µM (HCT-116) is reported as 7% and the growth at 0.01 µM (SF-539 [1]) is reported as -12%. For the same molecule, the growth at 0.01 µM (OVCAR-3 [2]) was 14%, the growth at 0.01 µM (A498) was -11% and the growth at 0.1 µM (A549 [3]) was 11%. It also gave a growth at 0.1 µM (EKVX [4]) of 53%, a growth at 0.1 µM (SF-539 [5]) of -6% and a growth at 0.1 µM (SK-OV-3) of -2%. It also gave a growth at 1 µM (CCRF-CEM [6]) of 42%, a growth at 1 µM (SR) of 16% and a growth at 1 µM (HOP-62) of 6%. For the same molecule, the growth at 1 µM (SNB-19) was 34%, the growth at 1 µM (SNB-75) was 39% and the growth at 1 µM (Malme-3M) was 44%. It also gave a growth at 1 µM (UACC-257) of 62%, a growth at 1 µM (IGROV-1 [7]) of 26% and a growth at 10 µM (NCI-H460) of -5%. The growth at 10 µM (SF-539 [8]) was -24%, the growth at 10 µM (OVCAR-4) was 35% and the growth at 10 µM (OVCAR-8) was 9%. For the same molecule, the growth at 10 µM (786-0) was 3%, the growth at 10 µM (SN12C) was 24% and the growth at 100 µM (CCRF-CEM [9]) was 25%. It also gave a growth at 100 µM (COLO 205) of -71%, a growth at 100 µM (KM12) of -78% and a growth at 100 µM (OVCAR-3 [10]) of -59%. It also gave a GI50 (A549 [11]; read-out: GI50) of under 0.01 µM, a CC50 (A549 [11]; [15]) of over 100 µM and a TGI (A549 [11]; read-out: TGI) of 19.5 µM. It also gave a GI50 (A549 [11]; read-out: pGI50 (converted)) of under 0.01 µM, a CC50 (A549 [11]; [16]) of over 100 µM and a TGI (A549 [11]; read-out: pTGI (converted)) of 19.5 µM. For the same molecule, the CC50 (EKVX [12]; [15]) was over 100 µM, the TGI (EKVX [12]; read-out: TGI) was 39 µM and the CC50 (EKVX [12]; [16]) was over 100 µM. The TGI (EKVX [12]; read-out: pTGI (converted)) was 38.9 µM, the GI50 (SF-268; read-out: GI50) was under 0.01 µM and the CC50 (SF-268; [15]) was over 100 µM. The TGI (SF-268; read-out: TGI) was 26.8 µM, the GI50 (SF-268; read-out: pGI50 (converted)) was under 0.01 µM and the CC50 (SF-268; [16]) was over 100 µM. It also gave a TGI (SF-268; read-out: pTGI (converted)) of 26.9 µM, a GI50 (IGROV-1 [13]; read-out: GI50) of under 0.01 µM and a CC50 (IGROV-1 [13]; [15]) of over 100 µM. It also gave a TGI (IGROV-1 [13]; read-out: TGI) of 23.7 µM, a GI50 (IGROV-1 [13]; read-out: pGI50 (converted)) of under 0.01 µM and a CC50 (IGROV-1 [13]; [16]) of over 100 µM. For the same molecule, the TGI (IGROV-1 [13]; read-out: pTGI (converted)) was 24 µM, the GI50 (OVCAR-3 [14]; read-out: GI50) was under 0.01 µM and the LC50 (50% lethal concentration) (OVCAR-3 [14]; read-out: LC50) was 75.5 µM. The TGI (OVCAR-3 [14]; read-out: TGI) was 14.7 µM, the GI50 (OVCAR-3 [14]; read-out: pGI50 (converted)) was under 0.01 µM and the LC50 (50% lethal concentration) (OVCAR-3 [14]; read-out: pLC50 (converted)) was 75.9 µM. It also gave a TGI (OVCAR-3 [14]; read-out: pTGI (converted)) of 14.8 µM.
